Results: PubChem BioAssay (NCI)
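Test compounds were applied to cells in 96-well plates for 48 hours at 5 doses. TGI denotes the concentration required for complete inhibition of growth.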

How the values were obtained:
Experiment in all cases: NCI-60 cell line screen, 48 h
SF-268 CNS = system: SF-268 CNS
SNB-19 CNS = system: SNB-19 CNS
MCF7 breast = system: MCF7 breast
HCT-116 colon = system: HCT-116 colon
OVCAR-5 ovarian = system: OVCAR-5 ovarian
SN12C renal = system: SN12C renal
NCI-H522 lung = system: NCI-H522 lung
CCRF-CEM leukemia = system: CCRF-CEM leukemia
MDA-MB-435 = system: MDA-MB-435
UO-31 renal = system: UO-31 renal
A498 renal = system: A498 renal
NCI-H460 lung = system: NCI-H460 lung
M19-MEL melanoma = system: M19-MEL melanoma
SF-295 CNS = system: SF-295 CNS
MOLT-4 leukemia = system: MOLT-4 leukemia
T-47D breast = system: T-47D breast
SR leukemia = system: SR leukemia
EKVX NSCLC = system: EKVX NSCLC
SK-MEL-2 melanoma = system: SK-MEL-2 melanoma

| Structure (SMILES) | TGI (SF-268 CNS) [µM] | TGI (SNB-19 CNS) [µM] | TGI (MCF7 breast) [µM] | TGI (HCT-116 colon) [µM] | TGI (OVCAR-5 ovarian) [µM] | TGI (SN12C renal) [µM] | TGI (NCI-H522 lung) [µM] | TGI (CCRF-CEM leukemia) [µM] | TGI (MDA-MB-435) [µM] | TGI (UO-31 renal) [µM] | TGI (A498 renal) [µM] | TGI (NCI-H460 lung) [µM] | TGI (M19-MEL melanoma) [µM] | TGI (SF-295 CNS) [µM] | TGI (MOLT-4 leukemia) [µM] | TGI (T-47D breast) [µM] | TGI (SR leukemia) [µM] | TGI (EKVX NSCLC) [µM] | TGI (SK-MEL-2 melanoma) [µM] |
| --- | --- | --- | --- | --- | --- | --- | --- | --- | --- | --- | --- | --- | --- | --- | --- | --- | --- | --- | --- |
| O=c1cc(-c2cccc(O)c2)[nH]c2cc3c(cc12)OCO3 | > 69.6 | > 49.6 | > 100 | > 100 | > 100 | > 78 | 0.951 | > 100 | 0.997 | > 100 | > 100 | > 100 | 95.9 | > 100 | > 100 | > 100 |  |  |  |
| Cc1c2n(c(=O)[nH]c1=O)C1OC(CO)C(O2)C1N=[N+]=[N-] (stereo unspecified) | > 100 | > 100 |  | > 100 |  | > 100 | > 100 | > 100 |  | > 100 | > 100 | > 100 | > 100 | > 100 | > 100 |  | > 100 | > 100 | > 100 |
